US10806798B2, “Compound with effects of thrombolysis, free radical scavenging and thrombus-targeting” (Shanghai Lumosa Therapeutics Co., Ltd., priority 2012, dated 2020)
Marks after values point to notes of the source that are not given here. Side chains are listed from the residue outwards. Ends that are not written are not given here.

Experiments:
[1] = system: NO free radicals (acetylcholine induced vasodilation); assay: NO radical scavenging: inhibition of acetylcholine induced vasodilation of aorta rings; parameters: species or system Wistar rats; settings: final concentration 5×10^−6 M; n = 6
Procedure: Male Wistar rats weighing 250 to 300 g were starved for 12 h before operation with free access to drinking water, and sacrificed by cervical dislocation. Thoracotomy was immediately carried out and thoracic aorta was taken out, connective tissues attached thereto were dissected, and vessels were cut into aorta rings with a length of 3 to 5 mm and placed into a perfusion bath. The bath contained 15 ml Krebs-Henseleit solution and was kept at a constant temperature of 37° C., into which 95% O2-5% CO2 gas was charged. The anchor to which the aorta rings were immobilized was connected to a tension transducer, and vasomotion curves were recorded on a dual-trace recorder at a paper speed of 1 mm/min. With the static tension adjusted to 1.0 g and 30 min of equilibration, norepinephrine at a final concentration of 10^−8 M was dosed to allow the aorta to contract for preexcitation. Norepinephrine was washed off, followed by 30 min of equilibration, and norepinephrine was added into the bath to a final concentration of 10^−8 M. When the contraction tension was steady at a plateau level, 20 μl normal saline (blank), a 20 μl solution of any one of compounds Ia to Il in normal saline (at a final concentration of 5×10^−6 M), or a 20 μl solution of NO free radical scavenger (1,3-dioxo-2-(4′-oxyacetoxyl-phenyl)-4,4,5,5-tetramethylimidazoline, TMMZ) in normal saline (at a final concentration of 5×10^−6 M) was added into the bath. When stabilized, a 20 μl acetylcholine in normal saline was added (at a final concentration of 10^−6 M). The NO scavenging ability of the drugs was expressed as a percentage of inhibition of acetylcholine induced vasodilation.

rats with stroke [2] = assay: Immediate treatment after stroke onset, neural function scores (Zealonga method, 0 no loss to 5 death); format: in vivo, SD rats; settings: 0.1 μmol/kg, 24 h after awake, n = 10
Procedure: The in vivo anti-stroke activity of the present invention was represented by neural function scores, with a lower score indicating higher activity. A 10% chloral hydrate solution (400 mg/kg) was injected intraperitoneally into SD male rats (250-300 g) for anesthesia. An open incision of 2 cm in length was longitudinally made slightly on the right to the center of the neck, and the right common carotid artery trunk, carotid external artery and carotid internal artery were dissected along the margin of the inner side of sternocleidomastoid muscles. The open incisions in the carotid internal artery and the proximal end of the common carotid artery were occluded respectively with noninvasive arterial clips. A small open incision was made across the carotid external artery, and the distal end of the carotid external artery was ligated. The arterial clip at the proximal end of the carotid external artery was released, and 10 μl blood was drawn before the proximal end of the common carotid artery was again occluded with the noninvasive arterial clip. The 10 μl blood drawn was placed in a 1 mL EP vial and kept at RT for 30 min for coagulation of blood, and then transferred into a −20° C. refrigerator for 1 h to allow coagulation. After 1 h, the blood clots were taken out, into which 1 mL saline was added, and then broken into uniform microthrombus by using a steel spatula. The microthrombus suspension was then transferred to a 1 mL injector until use. At the same time when the clip on the carotid internal artery of the rat was released, 1 mL thrombus suspension in the injector was slowly injected from the carotid external artery of the rat to its proximal end, and the suspension was injected into the brain of the rat through the carotid internal artery. Subsequently, the proximal end of the carotid external artery was ligated, the arterial clips on the carotid internal artery and the common carotid artery were released, and blood flow was restored. The jugular common vein of the rats was dissected. The vein was immediately ligated, 3 drops of penicillin was dropped at the wound site, the wound was stitched up, and the animals were allowed to come around, as the sham operation group. Or injection of urokinase in normal saline (positive control group, at a dosage of 20000 IU/kg), normal saline (blank control group, at a dosage of 3 ml/kg), TMMZ in normal saline (component control group, at a dosage of 1 μmol/kg), a thrombolytic peptide ARPAK (SEQ. ID NO. 4), GRPAK (SEQ. ID NO. 5), RPAK (SEQ. ID NO. 3) or PAK in normal saline (component control group, at a dosage of 1 μmol/kg), or one of compounds Ia-Il in normal saline (at a dosage of 0.1 μmol/kg) was carried out. 24 h after the rats were awake, the degree of damage in the neural function was evaluated by the Zealonga method. A score of 0 indicated no sign of loss in neural function, 1 indicated the front limbs on the undamaged side could not stretch out, 2 indicated walking toward the undamaged side, 3 indicated tail-chasing walking in circles toward the undamaged side, 4 indicated involuntary walking with disturbance of consciousness, and 5 indicated death.

rats with stroke [3] = assay: Successive treatments with 1 μmol/kg Ie starting 6 h after the onset of stroke (Zealonga scores); format: in vivo, SD rats
Procedure: The efficacy was represented by neural function scores, and a lower score indicates higher efficacy. A 10% chloral hydrate solution was injected intraperitoneally into male SD rats at a dosage of 400 mg/kg body weight for anesthesia. A longitudinal open incision was made at the center of the neck, and the right common carotid artery trunk was dissected (about 3 cm in length). Carotid external artery branches were each dissected and ligated at the hyoid level, and the carotid internal artery was dissected at the swollen part of the neck. The open incision in the carotid internal artery and the proximal end of the common carotid artery were occluded respectively with noninvasive arterial clips, and the distal end of the carotid external artery was ligated. A catheter containing 0.5 mL thrombus suspension in normal saline was inserted in the carotid external artery trunk. At the same time when the clip on the carotid internal artery was released, the 0.5 mL thrombus suspension in normal saline in the catheter slowly flew from the carotid external artery to its proximal end, and then was injected into the arteries in brain through the carotid internal artery. Subsequently, the proximal end of the carotid artery was ligated, the arterial clips on the carotid internal artery and the common carotid artery were released, and blood flow was restored. After the wound was stitched up, 20,000 IU penicillin was intramuscularly injected for prevention from infection. After 6 h, compound Ie in normal saline (at a dosage of 1 μmol/kg, n=11), urokinase in normal saline (at a dosage of 20000 IU/kg, n=6) or tPA in normal saline (at a dosage of 3 mg/kg, n=6) was infused through the tail vein. Infusion of compound Ie in normal saline through rat tail vein was carried out once per day for 6 consecutive days, observed for 7 days. The rats were compared to themselves each day, and evaluated for the degree of damage in neural function by the Zealonga method. Alternatively, infusion of urokinase in normal saline through rat tail vein was carried out once per day for two consecutive days, the rats were compared to themselves each day, and evaluated for the degree of damage in neural function by the Zealonga method. Alternatively, infusion of tPA in normal saline through rat tail vein was carried out once per day for two consecutive days, the rats were compared to themselves each day, and evaluated for the degree of damage in neural function by the Zealonga method. A score of 0 indicated no sign of loss in neural function, 1 indicated the front limbs on the undamaged side could not stretch out, 2 indicated walking toward the undamaged side, 3 indicated tail-chasing walking in circles toward the undamaged side, 4 indicated involuntary walking with disturbance of consciousness, and 5 indicated death.

[4] = Day 1, urokinase 20000 IU/kg once per day from 6 h after stroke onset, n=6
[5] = Day 2, urokinase 20000 IU/kg once per day from 6 h after stroke onset, n=6

Row | Substance | Percentage of inhibition (Mean ± SD %) of vasodilatation induced by acetylcholine [1] [%] | Neural function scores (Mean ± SD) (rats with stroke [2]) | further results
1 | 1,3-dioxo-2-{4′-oxyacetyl-[N^ω-(Ala-Arg-Pro-Ala-Lys)-Lys-Arg-Gly-Asp-Phe]phenyl}-4,4,5,5-tetramethylimidazoline [Ic] | 21.78 | 0.89 ± 1.36 ^c | 
2 | 1,3-dioxo-2-{4′-oxyacetyl-[N^ω-(Ala-Arg-Pro-Ala-Lys)-Lys-Arg-Gly-Asp-Ser]phenyl}-4,4,5,5-tetramethylimidazoline [Ia] | 22.82 | 1.00 ± 1.01 ^b | 
3 | 1,3-dioxo-2-{4′-oxyacetyl-[N^ω-(Ala-Arg-Pro-Ala-Lys)-Lys-Arg-Gly-Asp-Val]phenyl}-4,4,5,5-tetramethylimidazoline [Ib] |  | 0.56 ± 1.01 ^c | 
4 | 1,3-dioxo-2-{4′-oxyacetyl-[N^ω-(Arg-Pro-Ala-Lys)-Lys-Arg-Gly-Asp-Phe]phenyl}-4,4,5,5-tetramethylimidazoline [Ii] | 13.75 | 0.87 ± 1.05 ^c | 
5 | 1,3-dioxo-2-{4′-oxyacetyl-[N^ω-(Arg-Pro-Ala-Lys)-Lys-Arg-Gly-Asp-Ser]phenyl}-4,4,5,5-tetramethylimidazoline [Ig] | 24.40 | 1.00 ± 1.19 ^b | 
6 | 1,3-dioxo-2-{4′-oxyacetyl-[N^ω-(Arg-Pro-Ala-Lys)-Lys-Arg-Gly-Asp-Val]phenyl}-4,4,5,5-tetramethylimidazoline [Ih] |  | 1.33 ± 1.22 ^b | 
7 | 1,3-dioxo-2-{4′-oxyacetyl-[N^ω-(Gly-Arg-Pro-Ala-Lys)-Lys-Arg-Gly-Asp-Phe]phenyl}-4,4,5,5-tetramethylimidazoline [If] |  | 0.60 ± 0.84 ^c | 
8 | 1,3-dioxo-2-{4′-oxyacetyl-[N^ω-(Gly-Arg-Pro-Ala-Lys)-Lys-Arg-Gly-Asp-Ser]phenyl}-4,4,5,5-tetramethylimidazoline | 17.60 | 1.22 ± 1.32 ^b | 
9 | 1,3-dioxo-2-{4′-oxyacetyl-[N^ω-(Pro-Ala-Lys)-Lys-Arg-Gly-Asp-Phe]phenyl}-4,4,5,5-tetramethylimidazoline (K([Lys-Ala-Pro])RGDF; not fully specified (N-terminus); also: 4′-oxyacetylphenyl-1,3-dioxo-4,4,5,5-tetramethylimidazoline (nitronyl nitroxide) conjugate, attachment amine not clear) [Il] | 22.62 | 0.50 ± 0.53 ^c | 
10 | 1,3-dioxo-2-{4′-oxyacetyl-[N^ω-(Pro-Ala-Lys)-Lys-Arg-Gly-Asp-Ser]phenyl}-4,4,5,5-tetramethylimidazoline (K([Lys-Ala-Pro])RGDS; not fully specified (N-terminus); also: 4′-oxyacetylphenyl-1,3-dioxo-4,4,5,5-tetramethylimidazoline (nitronyl nitroxide) conjugate, attachment amine not clear) [Ij] | 27.22 | 0.90 ± 1.10 ^c | 
11 | 1,3-dioxo-2-{4′-oxyacetyl-[N^ω-(Pro-Ala-Lys)-Lys-Arg-Gly-Asp-Val]phenyl}-4,4,5,5-tetramethylimidazoline (K([Lys-Ala-Pro])RGDV; not fully specified (N-terminus); also: 4′-oxyacetylphenyl-1,3-dioxo-4,4,5,5-tetramethylimidazoline (nitronyl nitroxide) conjugate, attachment amine not clear) [Ik] | 11.13 | 0.56 ± 0.53 ^c | 
12 | urokinase |  |  | number of rats scored Score 1 (rats with stroke [3]; [4]): 1 rat rats; number of rats scored Score 2 (rats with stroke [3]; [4]): 1 rat rats; number of rats scored Score 3 (rats with stroke [3]; [4]): 4 rats; number of rats scored Score 0 (rats with stroke [3]; [5]): 1 rat rats; number of rats scored Score 2 (rats with stroke [3]; [5]): 1 rat rats; rats died (rats with stroke [3]; out of 6 rats, within 24 h, urokinase 20000 IU/kg each day from 6 h after stroke onset): 4; autopsy on the dead rats (rats with stroke [3]; urokinase 20000 IU/kg each day from 6 h after stroke onset): hemorrhage in internal organs, particularly severe hemorrhage in lungs
